EP4667483A1, “HUMAN TRANSFERRIN RECEPTOR-BINDING PEPTIDE” (JCR Pharmaceuticals Co., Ltd., priority 2023, dated 2024)
Numbered stars: 1 amine (or outer) side, 2 acyl side, 3 side chain; on linkers, the order of the positions; unused ones are H or OH. Bridge positions count the residues as written; N and C are the ends. Square brackets hold non-standard residues; d marks the D form. Side chains are listed from the residue outwards. Peptide text beside a SMILES is read from it. * marks the point of attachment. Trp(1-CH2COOH) = N[C@@H](Cc1cn(CC(=O)O)c2ccccc12)C(=O)O; CH2CON(CH2CH2)2NCH2COOH = O=C(O)CN1CCN(C(=O)C*)CC1; NMePhe(4-COOH) = CN[C@@H](Cc1ccc(C(=O)O)cc1)C(=O)O; X1 = O=C([C@H](Cc1cccc(C(=O)[*:3])c1)N[*:1])[*:2]; Nle(6-morpholino) = N[C@@H](CCCCN1CCOCC1)C(=O)O; Phe(3-COOH) = N[C@@H](Cc1cccc(C(=O)O)c1)C(=O)O; Trp(7-aza) = N[C@@H](Cc1c[nH]c2ncccc12)C(=O)O; NH(CH2CH2O)8Me = COCCOCCOCCOCCOCCOCCOCCOCCN*; NMePhe(3-Cl) = CN[C@@H](Cc1cccc(Cl)c1)C(=O)O; Piperazinyl(4-CH2COOH) = O=C(O)CN1CCN(*)CC1; 3Pal(6-NH2) = Nc1ccc(C[C@H](N)C(=O)O)cn1; NMeY = CN[C@@H](Cc1ccc(O)cc1)C(=O)O; Nva(3-Et) = CCC(CC)[C@H](N)C(=O)O; 4Pal = N[C@@H](Cc1ccncc1)C(=O)O; PEG4 = NCCOCCOCCOCCOCCC(=O)O; Carboxymethyl = O=C(O)C*; CO = O=C([*:1])[*:2]

Assays:
[1] = target: T1, human transferrin receptor (hTfR) (Homo sapiens, UniProt P02786); assay: SPR measurement under pH 7.4 conditions (Biacore T200, CM3 chip, hTfR captured by His Tag antibody); format: binding; conditions: pH 7.4, single-cycle kinetics; read-out: hTfR SPR pH7.4 KD
T1 sequence (P02786 whole entry): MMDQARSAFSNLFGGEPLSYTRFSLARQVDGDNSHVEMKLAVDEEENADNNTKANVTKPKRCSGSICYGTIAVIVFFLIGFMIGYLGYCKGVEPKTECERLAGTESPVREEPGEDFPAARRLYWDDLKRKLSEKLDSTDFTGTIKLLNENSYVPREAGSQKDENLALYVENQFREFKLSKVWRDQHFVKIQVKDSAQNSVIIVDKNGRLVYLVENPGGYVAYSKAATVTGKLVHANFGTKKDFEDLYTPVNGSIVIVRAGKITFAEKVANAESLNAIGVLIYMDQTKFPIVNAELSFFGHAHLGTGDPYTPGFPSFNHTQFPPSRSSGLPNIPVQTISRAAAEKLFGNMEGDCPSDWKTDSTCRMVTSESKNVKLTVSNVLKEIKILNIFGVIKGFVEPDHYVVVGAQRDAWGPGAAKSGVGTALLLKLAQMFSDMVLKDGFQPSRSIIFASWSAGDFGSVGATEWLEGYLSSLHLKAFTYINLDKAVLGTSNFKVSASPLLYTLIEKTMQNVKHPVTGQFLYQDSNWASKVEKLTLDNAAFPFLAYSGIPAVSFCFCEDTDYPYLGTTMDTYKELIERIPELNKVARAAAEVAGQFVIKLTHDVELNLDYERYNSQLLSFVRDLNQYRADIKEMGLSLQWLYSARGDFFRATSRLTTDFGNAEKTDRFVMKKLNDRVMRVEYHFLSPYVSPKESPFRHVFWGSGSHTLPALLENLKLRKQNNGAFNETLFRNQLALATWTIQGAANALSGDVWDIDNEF

[2] = target: T1, human transferrin receptor (hTfR); assay: SPR measurement under pH 6.0 conditions (Biacore T200, NTA chip, immobilized hTfR); format: binding; conditions: pH 6.0, single-cycle kinetics; read-out: hTfR SPR pH6.0 KD

| Kd [1] [nM] | Kd [2] [nM] | SMILES |
| --- | --- | --- |
| 2.18 | 27 | CC[C@H](C)[C@@H]1NC(=O)[C@H](Cc2ccc(OCC(=O)N3CCN(CC(=O)O)CC3)cc2)NC(=O)[C@H](Cc2ccc(O)cc2)NC(=O)[C@H](CC(N)=O)NC(=O)[C@H](Cc2cn(CC(=O)O)c3ccccc23)NC(=O)[C@H](C(C)C)NC(=O)[C@H](Cc2cccc(Cl)c2)N(C)C(=O)[C@H](C(C)C)NC(=O)[C@H](C)NC(=O)CSC[C@@H](C(=O)NCCOCCOCCOCCOCCC(N)=O)NC(=O)[C@H](Cc2ccc(O)cc2)N(C)C(=O)[C@H](Cc2cccc(C(=O)O)c2)NC(=O)[C@H](CCCCN2CCOCC2)NC(=O)[C@H](CCCCN2CCOCC2)NC(=O)[C@H]([C@@H](C)CC)NC1=O [compound 32] ({CH2CO}-AV[NMePhe(3-Cl)]V[Trp(1-CH2COOH)]NYY(CH2CON(CH2CH2)2NCH2COOH)II[Nle(6-morpholino)][Nle(6-morpholino)][Phe(3-COOH)][NMeY]C[PEG4]-NH2; thioether N-15) |
| 8.5 | 22.1 | CC[C@H](C)[C@@H]1NC(=O)[C@H](Cc2ccc(OCC(=O)N3CCN(CC(=O)O)CC3)cc2)NC(=O)[C@H](Cc2ccc(O)cc2)NC(=O)[C@H](CC(N)=O)NC(=O)[C@H](Cc2cn(CC(=O)O)c3ccccc23)NC(=O)[C@H](C(C)C)NC(=O)[C@H](Cc2cccc(Cl)c2)N(C)C(=O)[C@H](C(C)C)NC(=O)[C@H](C)NC(=O)CSC[C@@H](C(=O)NCCOCCOCCOCCOCCC(N)=O)NC(=O)[C@H](Cc2ccc(O)cc2)N(C)C(=O)[C@H](Cc2ccncc2)NC(=O)[C@H](CCCCN2CCOCC2)NC(=O)[C@H](CCCCNC(=O)N2CCN(CC(=O)O)CC2)NC(=O)[C@H]([C@@H](C)CC)NC1=O [compound 33] ({CH2CO}-AV[NMePhe(3-Cl)]V[Trp(1-CH2COOH)]NYY(CH2CON(CH2CH2)2NCH2COOH)IIK([CO-Piperazinyl(4-CH2COOH)])[Nle(6-morpholino)][4Pal][NMeY]C[PEG4]-NH2; thioether N-15) |
| 5.22 | 14.9 | CC[C@H](C)[C@@H]1NC(=O)[C@H](Cc2ccc(OCC(=O)N3CCN(CC(=O)O)CC3)cc2)NC(=O)[C@H](Cc2ccc(O)cc2)NC(=O)[C@H](CC(N)=O)NC(=O)[C@H](Cc2cn(CC(=O)O)c3ccccc23)NC(=O)[C@H](C(C)C)NC(=O)[C@H](Cc2cccc(Cl)c2)N(C)C(=O)[C@H](C(C)C)NC(=O)[C@H](C)NC(=O)CSC[C@@H](C(=O)NCCOCCOCCOCCOCCC(N)=O)NC(=O)[C@H](Cc2ccc(O)cc2)N(C)C(=O)[C@H](Cc2ccncc2)NC(=O)[C@H](CCCNC(=N)N)NC(=O)[C@H](CCCCNC(=O)N2CCN(CC(=O)O)CC2)NC(=O)[C@H]([C@@H](C)CC)NC1=O [compound 34] |
| 1.74 | 37 | CC[C@H](C)[C@@H]1NC(=O)[C@H](Cc2ccc(OCC(=O)N3CCN(CC(=O)O)CC3)cc2)NC(=O)[C@H](Cc2ccc(O)cc2)NC(=O)[C@H](CC(N)=O)NC(=O)[C@H](Cc2cn(CC(=O)O)c3ccccc23)NC(=O)[C@H](C(C)C)NC(=O)[C@H](Cc2cccc(Cl)c2)N(C)C(=O)[C@H](C(C)C)NC(=O)[C@H](C)NC(=O)CSC[C@@H](C(=O)NCCOCCOCCOCCOCCC(N)=O)NC(=O)[C@H](Cc2ccc(O)cc2)N(C)C(=O)[C@H](Cc2cccc(C(=O)O)c2)NC(=O)[C@H](CCCCN2CCOCC2)NC(=O)[C@H](CCC(N)=O)NC(=O)[C@H]([C@@H](C)CC)NC1=O [compound 35] ({CH2CO}-AV[NMePhe(3-Cl)]V[Trp(1-CH2COOH)]NYY(CH2CON(CH2CH2)2NCH2COOH)IIQ[Nle(6-morpholino)][Phe(3-COOH)][NMeY]C[PEG4]-NH2; thioether N-15) |
| 2.47 | 44 | CC[C@H](C)[C@@H]1NC(=O)[C@H](Cc2ccc(OCC(=O)N3CCN(CC(=O)O)CC3)cc2)NC(=O)[C@H](Cc2ccc(O)cc2)NC(=O)[C@H](CC(N)=O)NC(=O)[C@H](Cc2cn(CC(=O)O)c3ccccc23)NC(=O)[C@H](C(C)C)NC(=O)[C@H](Cc2cccc(Cl)c2)N(C)C(=O)[C@H](C(C)C)NC(=O)[C@H](C)NC(=O)CSC[C@@H](C(=O)NCCOCCOCCOCCOCCC(N)=O)NC(=O)[C@H](Cc2ccc(O)cc2)N(C)C(=O)[C@H](Cc2cccc(C(=O)O)c2)NC(=O)[C@H](CCCNC(=N)N)NC(=O)[C@H](CCC(N)=O)NC(=O)[C@H]([C@@H](C)CC)NC1=O [compound 36] |
| 43.8 | 42.6 | CC[C@H](C)[C@@H]1NC(=O)[C@H](Cc2ccc(OCC(=O)N3CCN(CC(=O)O)CC3)cc2)NC(=O)[C@H](Cc2ccc(O)cc2)NC(=O)[C@H](CC(N)=O)NC(=O)[C@H](Cc2cn(CC(=O)O)c3ccccc23)NC(=O)[C@H](C(C)C)NC(=O)[C@H](Cc2cccc(Cl)c2)N(C)C(=O)[C@H](C(C)C)NC(=O)[C@H](C)NC(=O)CSC[C@@H](C(=O)NCCOCCOCCOCCOCCC(N)=O)NC(=O)[C@H](Cc2ccc(O)cc2)N(C)C(=O)[C@H](Cc2ccncc2)NC(=O)[C@H](CCCCN2CCOCC2)NC(=O)[C@H](CCC(=O)NC[C@H](O)[C@@H](O)[C@H](O)[C@H](O)CO)NC(=O)[C@H]([C@@H](C)CC)NC1=O [compound 40] |
| 14.5 | 91.4 | CC[C@H](C)[C@@H]1NC(=O)[C@H](Cc2ccc(OCCNC(=O)N3CCN(CC(=O)O)CC3)cc2)NC(=O)[C@H](Cc2ccc(O)cc2)NC(=O)[C@H](CC(N)=O)NC(=O)[C@H](Cc2cn(CC(=O)O)c3ccccc23)NC(=O)[C@H](C(C)C)NC(=O)[C@H](Cc2cccc(Cl)c2)N(C)C(=O)[C@H](C(C)C)NC(=O)[C@H](C)NC(=O)CSC[C@@H](C(=O)NCCOCCOCCOCCOCCC(N)=O)NC(=O)[C@H](Cc2ccc(O)cc2)N(C)C(=O)[C@H](Cc2ccncc2)NC(=O)[C@H](CCCCN2CCOCC2)NC(=O)[C@H](CCC(=O)NCCOCCOCCOCCOCCOCCOCCOCCOC)NC(=O)[C@H]([C@@H](C)CC)NC1=O [compound 41] |
| 5.11 | 34.4 | CC[C@H](C)[C@@H]1NC(=O)[C@H](Cc2ccc(OCC(=O)N3CCN(CC(=O)O)CC3)cc2)NC(=O)[C@H](Cc2ccc(O)cc2)NC(=O)[C@H](CC(N)=O)NC(=O)[C@H](Cc2c[nH]c3ncccc23)NC(=O)[C@H](C(C)C)NC(=O)[C@H](Cc2cccc(Cl)c2)N(C)C(=O)[C@H](C(C)C)NC(=O)[C@H](C)NC(=O)CSC[C@@H](C(=O)NCCOCCOCCOCCOCCC(N)=O)NC(=O)[C@H](Cc2ccc(O)cc2)N(C)C(=O)[C@H](Cc2cccc(C(=O)O)c2)NC(=O)[C@H](CCCNC(=N)N)NC(=O)[C@H](CCC(=O)NCCOCCOCCOCCOCCOCCOCCOCCOC)NC(=O)[C@H]([C@@H](C)CC)NC1=O [compound 42] |
| 107 | 601 | CCC(CC)[C@@H]1NC(=O)[C@H](Cc2ccc(OCC(=O)O)cc2)NC(=O)[C@H](Cc2ccc(N)nc2)NC(=O)[C@H](CC(N)=O)NC(=O)[C@H](Cc2c[nH]c3ncccc23)NC(=O)[C@H](C(C)C)NC(=O)[C@H](Cc2cccc(Cl)c2)N(C)C(=O)[C@H](C(C)C)NC(=O)[C@H](C)NC(=O)CSC[C@@H](C(=O)NCCOCCOCCOCCOCCC(N)=O)NC(=O)[C@H](Cc2ccc(O)cc2)N(C)C(=O)[C@H](Cc2cccc(C(=O)O)c2)NC(=O)[C@H](CCCNC(=N)N)NC(=O)[C@H](CCC(=O)NCCOCCOCCOCCOCCOCCOCCOCCOC)NC(=O)[C@H]([C@@H](C)CC)NC1=O [compound 43] ({CH2CO}-AV[NMePhe(3-Cl)]V[Trp(7-aza)]N[3Pal(6-NH2)]Y(Carboxymethyl)[Nva(3-Et)]IE(NH(CH2CH2O)8Me)R[Phe(3-COOH)][NMeY]C[PEG4]-NH2; thioether N-15) |
| 36.6 | 339 | CCC(CC)[C@@H]1NC(=O)[C@H](Cc2ccc(OCC(=O)O)cc2)NC(=O)[C@H](Cc2ccc(N)nc2)NC(=O)[C@H](CC(N)=O)NC(=O)[C@H](Cc2c[nH]c3ncccc23)NC(=O)[C@H](C(C)C)NC(=O)[C@H](Cc2cccc(Cl)c2)N(C)C(=O)[C@H](C(C)C)NC(=O)[C@H](C)NC(=O)CSC[C@@H](C(=O)NCCOCCOCCOCCOCCC(N)=O)NC(=O)[C@H](Cc2ccc(O)cc2)N(C)C(=O)[C@H](Cc2cccc(C(=O)NCCOCCOCCOCCOCCC(=O)O)c2)NC(=O)[C@H](CCCNC(=N)N)NC(=O)[C@H](CCC(N)=O)NC(=O)[C@H]([C@@H](C)CC)NC1=O [compound 44] ({CH2CO}-AV[NMePhe(3-Cl)]V[Trp(7-aza)]N[3Pal(6-NH2)]Y(Carboxymethyl)[Nva(3-Et)]IQR[X1](PEG4)[NMeY]C[PEG4]-NH2; thioether N-15) |
| 75.5 | 869 | CCC(CC)[C@@H]1NC(=O)[C@H](Cc2ccc(OCC(=O)O)cc2)NC(=O)[C@H](Cc2ccc(N)nc2)NC(=O)[C@H](CC(N)=O)NC(=O)[C@H](Cc2c[nH]c3ncccc23)NC(=O)[C@H](C(C)C)NC(=O)[C@H](Cc2cccc(Cl)c2)N(C)C(=O)[C@H](C(C)C)NC(=O)[C@H](C)NC(=O)CSC[C@@H](C(=O)NCCOCCOCCOCCOCCC(N)=O)NC(=O)[C@H](Cc2ccc(C(=O)O)cc2)N(C)C(=O)[C@H](Cc2cccc(C(=O)O)c2)NC(=O)[C@H](CCCNC(=N)N)NC(=O)[C@H](CCC(N)=O)NC(=O)[C@H]([C@@H](C)CC)NC1=O [compound 45] ({CH2CO}-AV[NMePhe(3-Cl)]V[Trp(7-aza)]N[3Pal(6-NH2)]Y(Carboxymethyl)[Nva(3-Et)]IQR[Phe(3-COOH)][NMePhe(4-COOH)]C[PEG4]-NH2; thioether N-15) |
| 116 | 249 | CCC(CC)[C@@H]1NC(=O)[C@H](Cc2ccc(OCC(=O)O)cc2)NC(=O)[C@H](Cc2ccc(N)nc2)NC(=O)[C@H](CC(N)=O)NC(=O)[C@H](Cc2cn(CC(=O)O)c3ccccc23)NC(=O)[C@H](C(C)C)NC(=O)[C@H](Cc2cccc(Cl)c2)N(C)C(=O)[C@H](C(C)C)NC(=O)[C@H](C)NC(=O)CSC[C@@H](C(=O)NCCOCCOCCOCCOCCC(N)=O)NC(=O)[C@H](Cc2ccc(O)cc2)N(C)C(=O)[C@H](Cc2ccncc2)NC(=O)[C@H](CCCCN2CCOCC2)NC(=O)[C@H](CCC(N)=O)NC(=O)[C@H]([C@@H](C)CC)NC1=O [compound 47] ({CH2CO}-AV[NMePhe(3-Cl)]V[Trp(1-CH2COOH)]N[3Pal(6-NH2)]Y(Carboxymethyl)[Nva(3-Et)]IQ[Nle(6-morpholino)][4Pal][NMeY]C[PEG4]-NH2; thioether N-15) |
